From article PMC5638327, “Comparison of bioavailability and antiplatelet action of ticagrelor in patients with ST-elevation myocardial infarction and non-ST-elevation myocardial infarction: A prospective, observational, single-centre study” (PLoS ONE, 2017)
Where two headings read alike, the source gives them in different places.

How the values were obtained:
[1] = Pharmacokinetic assessment: plasma concentrations by liquid chromatography tandem mass spectrometry after ticagrelor loading dose; format: in vivo, human (patients with myocardial infarction); conditions: for Tmax / AUC(0-t) / Cmax: both sexes, human, plasma, 180 mg
Method: (§1) Consecutive STEMI and NSTEMI patients admitted to the study site (Cardiology Department, Dr. A. Jurasz University Hospital, Bydgoszcz, Poland) were screened for eligibility. After admission to the study centre, confirmation of the initial diagnosis of STEMI or NSTEMI, and provision of a written informed consent to participate in the trial, all study participants received an oral 300 mg LD of plain aspirin (Polpharma SA, Starogard Gdański, Poland) and 180 mg LD ticagrelor in integral tablets with 250 mL tap water. Subsequently, within 15 minutes of ticagrelor LD, all patients underwent coronary angiography followed by PCI as required. During the periprocedural period, all study participants received unfractionated heparin in body weight adjusted dose according to the European Society of Cardiology (ESC) recommendations. Plasma concentrations of ticagrelor and its active metabolite, as well as their antiplatelet effect, were evaluated according to the sampling schedule employed at our centre in previous PK/PD study (pre-treatment, 0.5 h, 1 h, 2 h, 3 h, 4 h, 6 h and 12 h post ticagrelor LD).
(§2) Blood samples for PK/PD evaluation were obtained from an 18-gauge cannula inserted into one of the forearm veins. The first 5 mL blood was discarded to avoid spontaneous platelet activation. In each patient specimens were collected at the eight pre-defined time. Detailed description of blood sample processing has been published in the study protocol (S1 File).
Ticagrelor and AR-C124910XX plasma concentrations were analyzed with liquid chromatography coupled with tandem mass spectrometry, using a validated method. Lower limits of quantification were 4.69 ng/mL for both ticagrelor and AR-C124910XX.
Statistical calculations were performed using the Statistica 12.5 package (StatSoft, Tulsa, OK, USA). Pharmacokinetic calculations and plots were made using the Matlab R2014 software (Mathworks, Natick, MA, USA); trapezoidal rule was applied to calculate AUC. Data for pharmacokinetic features of ticagrelor and AR-C124910XX, pharmacodynamic outcome variables, creatinine, glomerular filtration rate and left ventricle ejection fraction were presented as medians and interquartile ranges. Data for heart rate, systolic and diastolic blood pressure, age and body mass index were presented as means with standard deviations. […] Continuous variables were compared between both study groups with the Student’s t-test and Mann-Whitney U test, depending on the presence or absence of the normal distribution (as assessed by the Shapiro-Wilk test). Comparisons between categorical variables were performed by the chi-square test, with Yates's correction if necessary, or using Fisher's exact test. […]
Blood samples for pharmacokinetic and phar- infarction; PCI, percutaneous coronary intervention; PD, macodynamic assessment will be drawn at eight prede- pharmacodynamics; PK, pharmacokinetics; STEMI, ﬁned time points according to the blood sampling ST-elevation myocardial infarction. schedule already used at our site in a previous study
( pretreatment baseline, 30 min, 1, 2, 3, 4, 6 andsamples will be stored at temperature below −60°C until 12 hours post-ticagrelor LD— as shown in ﬁgure 1). 31 analysed.
All enrolled patients with ﬁnally unconﬁrmed initial Venous blood for the assessment of pharmacodynam-diagnosis of AMI will be excluded from the primar y ana- ics with the vasodilator-stimulated phosphoprotein lysis. Patients qualiﬁed for urgent coronar y arter y bypass (VASP) assay and multiple electrode aggregometr y surgery within the blood sampling period also will not (MEA) will be collected into trisodium citrate and be included in the analysis. All study participants not hirudin vacuum test tubes, respectively. The ﬁrst 3–5mL receiving PCI will be reported. of blood will be discarded to avoid spontaneous platelet Study population activation. The pharmacodynamic analysis will be per- […]

platelet reactivity = assay: Platelet reactivity by Multiplate (multiple electrode aggregometry) after ticagrelor loading dose; format: in vivo, human (patients with myocardial infarction); conditions: median [interquartile range]; for time to achieve platelet inhibition below the cut-off value for HPR (Multiplate): HPR = AUC >46 U
Method: as §1, §2
Platelet reactivity was assessed using VASP and Multiplate. The VASP assay (Biocytex, Inc., Marseille, France) was used in all study participants, while Multiplate (Roche Diagnostics International Ltd., Rotkreuz, Switzerland) was used in all except in those treated with glycoprotein (GP) IIb/IIIa receptor inhibitors. Pharmacodynamic evaluation was performed according to the manufacturers' instructions. HPR was defined as platelet reactivity index >50% for the VASP assay and AUC >46 units (U) for Multiplate. […]
Table 1 Inclusion and exclusion criteria of the PINPOINT study
Inclusion criteria Exclusion criteria
▸ Provision of informed consent prior to any ▸ Treatment with ticlopidine, clopidogrel, prasugrel or ticagrelor within study-specific procedure 14 days before the study enrolment
▸ Diagnosis of STEMI or NSTEMI ▸ Hypersensitivity to ticagrelor
▸ Men or non-pregnant women ▸ Current treatment with oral anticoagulant or chronic therapy with low-molecular-weight heparin
▸ Provision of informed consent for angiography ▸ Active bleeding […]
▸ History of intracranial haemorrhage
▸ Fibrinolytic treatment during the index event
▸ Recent gastrointestinal bleeding (within 30 days)
▸ History of coagulation disorders
▸ History of moderate or severe hepatic impairment
▸ History of major surgery or severe trauma (within 3 months)
▸ Second or third degree atrioventricular block during screening for […]
▸ Patient requiring dialysis
▸ Manifest infection or inflammatory state
▸ Killip class III or IV during screening for eligibility
▸ Current therapy with strong CYP3A inhibitors or strong CYP3A […]
NSTEMI, non-ST-elevation myocardial infarction; PCI, percutaneous coronary intervention; STEMI, ST-elevation myocardial infarction. […]
MEA (Roche Diagnostics International, Rotkreuz, staff and the attending physician. The type of implanted Switzerland) will be used at all predeﬁned time points stent and choice of the access site for coronary invasive ( ﬁgure 1) for all study participants with the exception of procedure (radial or femoral ) will be at the discretion of those treated with glycoprotein IIb/IIIa (GP IIb/IIIa) the operator. During the periprocedural period, all study receptor inhibitors as this therapy may affect the results participants will receive unfractionated heparin in body of platelet reactivity assessment per formed with MEA weight adjusted dose according to the ESC recommenda-( ﬁgure 2). Pharmacodynamic assessment with VASP and tions.2336Administration of GP IIb/IIIa receptor in- […]

[2] = po, NSTEMI patients, oral 180 mg ticagrelor LD, 0 to 12 hours, median [interquartile range]
[3] = po, STEMI patients, oral 180 mg ticagrelor LD, 0 to 12 hours, median [interquartile range]

Tmax ([1]; oral, NSTEMI opioid-treated (morphine) patients (second value of the pair), post hoc analysis, median [interquartile range]): 4 h
Tmax ([1]; oral, NSTEMI patients without morphine (first value of the pair), post hoc analysis, median [interquartile range]): 1 h
AUC(0-t) ([1]; oral, internal pilot study, first 30 patients with STEMI, mean and SD, read-out: AUC(0–6)): 2.38 ± 2.28 µg·h/mL
AUC(0-t) ([1]; po, NSTEMI patients (n = 24), oral 180 mg ticagrelor LD, median [interquartile range], read-out: AUC(0–6)): 3.99 µg·h/mL
Cmax [1, 2]: 1.16 µg/mL
Tmax [1, 2]: 2.5 h
AUC(0-t) ([1]; po, NSTEMI patients, oral 180 mg ticagrelor LD, median [interquartile range], read-out: AUC(0–12)): 8.6 µg·h/mL
AUC(0-t) ([1]; po, STEMI patients (n = 49), oral 180 mg ticagrelor LD, median [interquartile range], read-out: AUC(0–6)): 2.49 µg·h/mL
Cmax [1, 3]: 1.11 µg/mL
Tmax [1, 3]: 4 h
AUC(0-t) ([1]; po, STEMI patients, oral 180 mg ticagrelor LD, median [interquartile range], read-out: AUC(0–12)): 5.68 µg·h/mL
lower AUC(0–6) in STEMI than in NSTEMI patients ([1]; first 6 h after 180 mg ticagrelor LD): 38%
Structure (SMILES): CCCSc1nc(N[C@@H]2C[C@H]2c2ccc(F)c(F)c2)c2nnn([C@@H]3C[C@H](OCCO)[C@@H](O)[C@H]3O)c2n1 [ticagrelor]
Platelet reactivity (Multiplate) (platelet reactivity; NSTEMI, 0.5 h after 180 mg ticagrelor LD): 49.0 [21.0–86.0] U
Platelet reactivity (Multiplate) (platelet reactivity; NSTEMI, 2 h after 180 mg ticagrelor LD): 18.0 [10.0–31.0] U
time to achieve platelet inhibition below the cut-off value for HPR (Multiplate) (platelet reactivity; NSTEMI): 0.5 [0.5–2.0] h
Platelet reactivity (Multiplate) (platelet reactivity; STEMI, 0.5 h after 180 mg ticagrelor LD): 88.0 [51.5–103.5] U
Platelet reactivity (Multiplate) (platelet reactivity; STEMI, 2 h after 180 mg ticagrelor LD): 36.0 [22.0–52.5] U
time to achieve platelet inhibition below the cut-off value for HPR (Multiplate) (platelet reactivity; STEMI): 2.0 [0.5–3.0] h
